Test results: US6890720B1, “Antigens derived from filaggrin and their use for diagnosing rheumatoid polyarthritis” (Biomerieux, priority 1996, dated 2005)
Square brackets hold non-standard residues; d marks the D form. Cit = NC(=O)NCCC[C@H](N)C(=O)O

How the values were obtained:
[1] = test system: serum from a patient suffering from RA; assay: Dot-blot of peptides and fil-gst before and after PAD, serum from an RA patient; type: binding, human; conditions: serum 1/2000
Procedure: (§1) These 2 peptides, as well as fil-gst, were citrullinated by the action of PAD, for 30 minutes at 50° C., in the same reaction medium as that indicated in Example 2. The specific conditions for each peptide, and for the fil-gst are the following: • peptide S-47-S (SEQ ID NO:3): 4 mU/μmol arginine • peptide S-35-R (SEQ ID NO:4): 2.7 mU/μmol arginine • fil-gst as indicated in Example 2.
(§2) The reactivity of each peptide and that of fil-gst, before and after action of the enzyme, towards the monoclonal antibody AHF4, and the serum from a patient suffering from RA, is compared by dot-blot.
(§3) The operating conditions are the following: • 0.5 μg by deposition of each antigen (peptides, fil-gst, acido-neutral variants of filaggrin (AVF)) • nitrocellulose treatment 45 minutes at 80° C., before immunodetection • RA serum used at the dilution of 1/2000; monoclonal antibody AHF4 used at a concentration of 0.2 μg/ml

[2] = test system: anti-filaggrin autoantibodies (AFAs); assay: ELISA of citrullinated and noncitrullinated peptides coated on microtiter plates; type: binding, human
Procedure: The reactivity of each citrullinated and noncitrullinated peptide was tested respectively in relation to a normal serum, to two sera from RA patients, to anti-filaggrin antibodies (AFAs) purified from a pool of 45 sera from RA patients and to anti-filaggrin antibodies purified from 12 sera from RA patients.
The wells of NUNC MAXISORP microtiter plates were respectively coated with the aid of the noncitrullinated and citrullinated peptides E-12-D (SEQ ID NO:6) and E-12-H (SEQ ID NO:5), diluted to a concentration of 5 μg/ml in a PBS buffer (pH: 7.4) and incubated overnight at 4° C. (final volume: […]). The wells were saturated for 30 minutes at 37° C. in PBS-Tween 20, 0.05%, 2.5% gelatin, 200 μl/well. The negative control serum (normal serum) was diluted 1/120. The antifilaggrin antibodies were diluted in PBS-Tween 20, 0.05%-0.5% gelatin (PBS TG) such that the final anti-filaggrin autoantibody concentrations are those indicated in the accompanying Table I. The negative control serum, the RA sera and the anti-filaggrin antibodies were added (final volume: 100 μl/well) and incubated for 1 hour at 37° C. and overnight at 4° C. Peroxidase-labeled goat antibodies anti-gamma heavy chains of the human immunoglobulins (marketed by the company SOUTHERN BIOTECHNOLOGIES) were added to each well (dilution in PBSTG: 1/2000, final volume: 100 μl/well) and incubated for 1 hour at 37° C.
The results presented in the accompanying Table I are given as a ratio of OD at 492 nm: citrullinated peptide signal/noncitrullinated peptide signal.

monoclonal antibody AHF4 = assay: Dot-blot of peptides and fil-gst before and after PAD, monoclonal antibody AHF4; type: binding; conditions: 0.5 μg antigen per deposit, AHF4 0.2 μg/ml
Procedure: as §1, §2, §3

[3] = test system: AFAs present in sera from patients suffering from RA; assay: Immunoblot of fil-gst deiminated in vitro by PAD, revealed with a pool of 5 RA sera; type: binding, human; conditions: for recognition by the sera from patients suffering from RA: pool of 5 RA sera 1/2000
Procedure: (§4) The mixture of the 9 fragments is subjected to deimination in vitro by peptidylarginine deiminase.
(§5) A rabbit muscle peptidylarginine deiminase preparation (681 U/ml) marketed by TAKARA BIOMED EUROPE is used according to the protocol recommended by the manufacturer.
(§6) The operating conditions are the following: • reaction medium: 0.1 M Tris-HCl, 10 mM CaCl2, 5 mM DTT, pH 7.4; • enzyme/substrate ratio: 140 mU/μmol of filaggrin containing 10% arginine or 4 mU/μmol of arginine; • incubation: between 0 and 60 min at 50° C.; • termination of the reaction: heating 3 min in LAEMMLI buffer.
(§7) 1 μl of each sample is deposited on an electrophoresis gel (PHAST®-SDS gel 12.5% PHARMACIA), and the electrophoresis is carried out with the PHAST-SYSTEM® apparatus (PHARMACIA), under the conditions recommended by the manufacturer. […] Dermatol. 105, 432, (1995)] at the concentration of 0.2 μg/ml (FIG. 3b).
The results are illustrated by FIG. 3 • Lane 1: BSA (1 hour, 50° C.) • Lane 2: BSA+PAD (1 hour, 50° C.) • Lane 3: fil-gst (1 hour, […]) • Lane 5: fil-gst+PAD (15 minutes, 50° C.) • Lane 6: fil-gst+PAD (30 minutes, 50° C.) • Lane 7: fil-gst+PAD (1 hour, 50° C.) • Lane 8: fil-gst+PAD+inhibitor (1 hour, 50° C.)

[4] = test system: anti-filaggrin monoclonal antibody AHF2; assay: Immunoblot of fil-gst deiminated in vitro by PAD, revealed with monoclonal antibody AHF2; type: binding; conditions: AHF2 0.2 μg/ml
Procedure: as §4, §5, §6, §7
The results are illustrated by FIG. 3 • Lane 1: BSA (1 hour, 50° C.) • Lane 2: BSA+PAD (1 hour, 50° C.) • Lane 3: fil-gst (1 hour, 50° C.) • Lane 4: fil-gst+PAD (15 minutes, 50° C.) • Lane 5: fil-gst+PAD (15 minutes, 50° C.) • Lane 6: fil-gst+PAD (30 minutes, 50° C.) • Lane 7: fil-gst+PAD (1 hour, 50° C.) • Lane 8: fil-gst+PAD+inhibitor (1 hour, 50° C.)

[5] = Control serum (normal serum) diluted 1/120
[6] = Pool of AFAs (purified from 45 RA sera), 5 μg/ml
[7] = Pool of AFAs (purified from 45 RA sera), 10 μg/ml
[8] = Pool of AFAs (purified from 45 RA sera), 20 μg/ml
[9] = citrullinated (PAD 30 minutes at 50° C.)
[10] = after citrullination (PAD 30 minutes at 50° C.), 0.5 μg antigen per deposit
[11] = not citrullinated, 0.5 μg antigen per deposit

Row | Molecule | ratio of OD at 492 nm: citrullinated peptide signal/noncitrullinated peptide signal [2, 5] | ratio of OD at 492 nm: citrullinated peptide signal/noncitrullinated peptide signal [2, 6] | ratio of OD at 492 nm: citrullinated peptide signal/noncitrullinated peptide signal [2, 7] | ratio of OD at 492 nm: citrullinated peptide signal/noncitrullinated peptide signal [2, 8] | ratio of OD at 492 nm: citrullinated peptide signal/noncitrullinated peptide signal ([2]; RA1 serum, AFAs 10 μg/ml) | ratio of OD at 492 nm: citrullinated peptide signal/noncitrullinated peptide signal ([2]; RA1 serum, AFAs 20 μg/ml) | ratio of OD at 492 nm: citrullinated peptide signal/noncitrullinated peptide signal ([2]; RA2 serum, AFAs 5 μg/ml) | ratio of OD at 492 nm: citrullinated peptide signal/noncitrullinated peptide signal ([2]; RA2 serum, AFAs 10 μg/ml) | ratio of OD at 492 nm: citrullinated peptide signal/noncitrullinated peptide signal ([2]; RA2 serum, AFAs 20 μg/ml) | recognition by AHF4 (monoclonal antibody AHF4; [9]) | recognition by AHF4 (monoclonal antibody AHF4; not citrullinated) | recognition by the serum from the patient suffering from RA [1, 10] | recognition by the serum from the patient suffering from RA [1, 11] | other results
1 | AVFs: acido-neutral variants of human epidermal filaggrin [reference compound] | – | – | – | – | – | – | – | – | – | – | – | – | – | recognition by the serum from the patient suffering from RA ([1]; natural antigen as such, 0.5 μg per deposit): recognizes
2 | NH2-EQSADSSRHSGSGH-COOH (H-EQSADSS[Cit]HSGSGH-OH) [Peptide E-12-H] | 1 | 2.45 | 2.42 | 1.82 | 1.32 | 1.20 | 10.44 | 11.51 | 8.38 | – | – | – | – | –
3 | NH2-ESSRDGSRHPRSHD-COOH (H-ESSRDGSRHPRSHD-OH; not fully specified; printed as NH2-ESSRDGSRHPRSHD-COOH) [Peptide E-12-D] | 1.076 | 1.77 | 1.63 | 1.48 | 1.42 | 1.85 | 2.42 | 3.77 | 5.57 | – | – | – | – | –
4 | NH2-SQDRDSQAQSEDSERRSASASRNHRGSAQEQSRDGSR-COOH (H-SQDRDSQAQSEDSERRSASASRNHRGSAQEQSRDGSR-OH; also: citrullinated, positions not given here; listed as Homo sapiens) [Peptide S-35-R, peptide of 37 amino acids, amino acids 155 to 191 of a human filaggrin unit, 7 arginine residues; tested before and after PAD] | – | – | – | – | – | – | – | – | – | does not recognize | does not recognize | not recognized | not recognized | –
5 | NH2-STGHSGSQHSHTTTQGRSDASRGSSGSRSTSRETRDQEQSGDGSRHSGS-COOH (H-STGHSGSQHSHTTTQGRSDASRGSSGSRSTSRETRDQEQSGDGSRHSGS-OH; also: citrullinated, positions not given here; listed as Homo sapiens) [Peptide S-47-S, peptide of 49 amino acids, amino acids 71 to 119 of a human filaggrin unit, 6 arginine residues; tested before and after PAD] | – | – | – | – | – | – | – | – | – | recognizes | recognizes | recognized | – | –
6 | fil-gst: recombinant human filaggrin unit fused with glutathione S-transferase (GST), expressed in E. coli (protein, left off: a dimerising Fc or GST, recombinant human filaggrin unit fused with glutathione S-transferase (GST), expressed in E. coli) QSESAHGRTGTSTGGRQGSHHKQARDSSRHSTSQEGQDTIHGHPGSSSGGRQGSHYEQLVDRSGHSGSHHSHTTSQGRSDASHGHSGSRSASRQTRNDEQSGDGSRHSGSRHHEASSRADSSGHSQVGQGQSEGPRTSRNWGSSFSQDSDSQGHSEDSERWSGSASRNHHGSAQEQLRDGSRHPRSHQEDRAGHGHSADSSRQSGTRHTQTSSGGQAASSHEQARSSAGERHGSHHQQSADSSRHSGIGHGQASSAVRDSGHRGYSGSQASDNEGHSEDSDTQSVSAHGQAGSHQQSHQESARGRSGETSGHSGSFLYQVSTHE | – | – | – | – | – | – | – | – | – | recognizes | recognizes | – | does not recognize | reactivity with the pool of RA sera ([3]; PAD reacted for 60 minutes at 50° C. (lane 7), sera 1/2000): increase in reactivity; recognition by the sera from patients suffering from RA ([3]; absence of citrullination reaction (1 h, 50° C. without PAD, lane 3)): not recognized; recognition by the sera from patients suffering from RA ([3]; from 5 minutes of citrullination with PAD at 50° C. (lane 4)): detected; recognition by monoclonal antibody AHF2 ([4]; citrullinated): recognizes all the fragments; recognition by monoclonal antibody AHF2 ([4]; not citrullinated): recognizes all the fragments
